# Measured values reported in patent US11478461B2, “[1.1.1] bicyclo compounds as indoleamine 2,3-dioxygenase inhibitors” (Merck Sharp & Dohme Corp., priority 2018, dated 2022).
# Biological target: IDO1 (Homo sapiens, UniProt P14902)
# Test: IDO1 Cellular Assay in Hela Cells Stimulated with IFNγ
# Assay type: cell-based
# Settings: IFNγ 100 ng/mL, 300 uM L-tryptophan, about 48 hours, fluorescence readout, read-out: IDO1 HELA Cell Assay, IC50
# Procedure: Biological Assays IDO1 Cellular Assay in Hela Cells Stimulated with IFNγ
# Hela cells were cultured in complete Hela culture medium ([…], 10% heat-inactivated fetal bovine serum) and expanded to about 1×10^9 cells. The cells were then collected and frozen down at 10×10^6 cells/vial in 1 mL frozen medium (90% complete Hela culture medium, 10% DMSO).
# Compounds to be tested were serially diluted in ten 3-fold steps in DMSO starting from 10 mM DMSO stocks in Echo low volume plate(s). Compound dilutions or DMSO alone were then dispensed from the dilution plate(s) into Greiner black 384-well assay plate(s) (catalog #781086, 50 nL/well) using an Echo 550 acoustic liquid handler (Labcyte).
# Frozen Hela cells were thawed and transferred into Hela assay medium (99% complete Hela culture medium, 1% Pen/Strep) with 20 mL medium/vial of cells. The cells were spun down at 250 g in a table top centrifuge for 5 min and suspended in same volume of Hela assay medium. […] Sterile L-tryptophan were added to the cells with final concentration of 300 uM L-tryptophan. A small aliquot (2 mL/plate) of Hela cells were set aside and were not treated with IFNγ, to serve as the Max-E control. The rest of Hela cells were added with sterile IFNγ (Cat #285-IF, R & D systems) with a final concentration of 100 ng/mL.
# Hela cells with and without IFNγ were dispensed to the respective wells of 384-well assay plates containing the compounds. The plates were incubated for about 48 hours at a 37° C., 5% CO2 incubator. Afterwards, 12 μL of 0.5 M methyl isonipecotate in dimethyl sulfoxide were added into each well and the plates were sealed and incubated at 37° C. without CO2 overnight. The plates were centrifuged for 1 min at 200×g. The resulting fluorescence was measured in a Spectramax plate reader (Molecular Devices) with a 400 nm excitation filter and a 510 nm emission filter.
# Potencies were calculated by […] least squares fit to the four parameter logistic IC50 equation.
# Chain of IDO1 (P14902 whole entry): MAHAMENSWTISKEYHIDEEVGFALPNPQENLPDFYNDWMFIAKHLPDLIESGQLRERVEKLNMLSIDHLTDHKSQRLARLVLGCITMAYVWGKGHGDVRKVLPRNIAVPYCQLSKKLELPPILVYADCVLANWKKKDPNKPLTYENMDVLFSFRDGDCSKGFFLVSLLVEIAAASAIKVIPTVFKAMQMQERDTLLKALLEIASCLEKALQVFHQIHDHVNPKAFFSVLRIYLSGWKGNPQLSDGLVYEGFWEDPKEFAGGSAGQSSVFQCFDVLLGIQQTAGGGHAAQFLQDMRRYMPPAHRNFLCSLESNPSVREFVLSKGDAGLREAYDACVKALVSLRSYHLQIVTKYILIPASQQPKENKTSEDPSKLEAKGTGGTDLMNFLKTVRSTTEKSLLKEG
row,SMILES,IC50 [nM]
1,"CC(C(=O)Nc1ccc(F)cc1)C12CC(NC(=O)c3cccn4nncc34)(C1)C2 (stereo not shown) [Example 143, N-[3-[2-(4-fluoroanilino)-1-methyl-2-oxo-ethyl]-1-bicyclo[1.1.1]pentanyl]triazolo[1,5-a]pyridin-1-ium-4-carboxamide]",448
2,"C[C@H](C(=O)Nc1cncc(Cl)c1)C12CC(NC(=O)c3ccc(Cl)c(Cl)c3)(C1)C2 [Example 94, (S)-3-chloro-5-(2-(3-(3,4-dichlorobenzamido)bicyclo[1.1.1]pentan-1-yl)propanamido)pyridin-1-ium 2,2,2-trifluoroacetate]",7.78
3,"CC(C(=O)Nc1ccc(F)cc1)C12CC(NC(=O)c3ccn4ccccc34)(C1)C2 (stereo not shown) [Example 127, N-[3-[2-(4-fluoroanilino)-1-methyl-2-oxo-ethyl]-1-bicyclo[1.1.1]pentanyl]indolizine-1-carboxamide]",186
4,"Cc1ccn2ncc(C(=O)NC34CC(C(C)C(=O)Nc5ccc(F)cc5)(C3)C4)c2c1 (stereo not shown) [Example 124, N-[3-[2-(4-fluoroanilino)-1-methyl-2-oxo-ethyl]-1-bicyclo[1.1.1]pentanyl]-5-methyl-pyrazolo[1,5-a]pyridin-1-ium-3-carboxamide]",153
5,"Cc1nc(C)c(C(=O)NC23CC(C(C)C(=O)Nc4ccc(F)cc4)(C2)C3)s1 (stereo not shown) [Example 136, N-[3-[2-(4-fluoroanilino)-1-methyl-2-oxo-ethyl]-1-bicyclo[1.1.1]pentanyl]-2,4-dimethyl-thiazole-5-carboxamide]",318
6,"O=C(NC1(C23CC(NC(=O)c4nc(C5CC5)no4)(C2)C3)CC1)c1ccc(F)cc1 [Example 29, 3-cyclopropyl-N-(3-(1-(4-fluorobenzamido)cyclopropyl)bicyclo[1.1.1]pentan-1-yl)-1,2,4-oxadiazole-5-carboxamide]",276
7,"C[C@H](C(=O)Nc1ccc(F)cc1)C12CC(NC(=O)OC(C)(C)C)(C1)C2 (single isomer, unassigned) [Example 32]",115
8,"CC(C(=O)Nc1ccc(F)cc1)C12CC(NC(=O)c3noc4c3CCCC4)(C1)C2 (stereo not shown) [Example 115, N-[3-[2-(4-fluoroanilino)-1-methyl-2-oxo-ethyl]-1-bicyclo[1.1.1]pentanyl]-4,5,6,7-tetrahydro-1,2-benzoxazole-3-carboxamide]",67
9,"CC(C(=O)Nc1ccc(F)cc1)C12CC(NC(=O)c3ccccn3)(C1)C2 (stereo not shown) [Example 129, N-[3-[2-(4-fluoroanilino)-1-methyl-2-oxo-ethyl]-1-bicyclo[1.1.1]pentanyl]pyridin-1-ium-2-carboxamide]",232
10,"O=C(NC12CC(C3(C(=O)Nc4ccc(F)cc4)CCC3)(C1)C2)c1cccc(Cl)c1 [Example 3, 3-Chloro-N-(3-(1-((4-fluorophenyl)carbamoyl)cyclobutyl)bicyclo [1.1.1]pentan-1-yl) Benzamide]",6.29
11,"C[C@H](C(=O)Nc1ccc(F)c(Cl)c1)C12CC(NC(=O)c3ccc(Cl)c(Cl)c3)(C1)C2 [Example 96, (S)-3,4-dichloro-N-(3-(1-((3-chloro-4-fluorophenyl)amino)-1-oxopropan-2-yl)bicyclo[1.1.1]pentan-1-yl)benzamide]",78.4
12,"CC(C(=O)Nc1ccc(Cl)cc1)C12CC(NC(=O)c3cccc(Cl)c3)(C1)C2 (single isomer, unassigned) [Example 6, 3-Chloro-N-(3-(1-((4-chlorophenyl)amino)-1-oxopropan-2-yl)bicyclo [1.1.1]pentan-1-yl) Benzamide]",38.6
13,"C[C@H](C(=O)Nc1cccc(C(F)(F)F)c1)C12CC(NC(=O)c3ccc(Cl)c(Cl)c3)(C1)C2 [Example 99, (S)-3,4-dichloro-N-(3-(1-oxo-1-((3-(trifluoromethyl)phenyl)amino)propan-2-yl)bicyclo[1.1.1]pentan-1-yl)benzamide]",111
14,"Cc1noc(C(=O)NC23CC(C4(NC(=O)c5ccc(F)cc5)CC4)(C2)C3)n1 [Example 28, N-(3-(1-(4-fluorobenzamido)cyclopropyl)bicyclo[1.1.1]pentan-1-yl)-3-methyl-1,2,4-oxadiazole-5-carboxamide]",72.2
15,"C[C@H](C(=O)Nc1ccc(F)cc1)C12CC(NC(=O)c3ccc(C#N)c(Cl)c3)(C1)C2 [Example 150, (S)-3-chloro-4-cyano-N-(3-(1-((4-fluorophenyl)amino)-1-oxopropan-2-yl)bicyclo[1.1.1]pentan-1-yl)benzamide]",48.3
16,"C[C@H](C(=O)Nc1ccc(F)cc1)C12CC(NC(=O)c3ccnc(C(F)(F)F)c3)(C1)C2 [Example 66, N-[3-[(1S)-2-(4-fluoroanilino)-1-methyl-2-oxo-ethyl]-1-bicyclo[1.1.1]pentanyl]-2-(trifluoromethyl)pyridin-1-ium-4-carboxamide]",13.1
17,"Cc1ccc(C(=O)NC23CC([C@@H](C)C(=O)Nc4ccc(F)cc4)(C2)C3)cc1Cl [Example 44, 3-chloro-N-[3-[(1R)-2-(4-fluoroanilino)-1-methyl-2-oxo-ethyl]-1-bicyclo[1.1.1]pentanyl]-4-methyl-benzamide]",2.28
18,"CC(NC(=O)c1ccc(F)cc1)C12CC(NC(=O)c3ccc(Cl)c(Cl)c3)(C1)C2 (single isomer, unassigned) [Example 21, 3,4-Dichloro-N-(3-(1-(4-fluorobenzamido)ethyl)bicyclo [1.1.1]pentan-1-yl) Benzamide]",908
19,"Cc1ccc(C(=O)NC23CC([C@@H](C)C(=O)Nc4ccc(F)cc4)(C2)C3)cc1F [Example 41, 3-fluoro-N-[3-[(1R)-2-(4-fluoroanilino)-1-methyl-2-oxo-ethyl]-1-bicyclo[1.1.l]pentanyl]-4-methyl-benzamide]",405
20,"C[C@H](C(=O)Nc1ccc(F)cc1)C12CC(NC(=O)c3cncc(Cl)c3)(C1)C2 [Example 59, 5-chloro-N-[3-[(1S)-2-(4-fluoroanilino)-1-methyl-2-oxo-ethyl]-1-bicyclo[1.1.1]pentanyl]pyridin-1-ium-3-carboxamide]",6.52
21,"C[C@H](C(=O)Nc1ccc(F)cc1)C12CC(NC(=O)c3cc(F)cc(Cl)c3)(C1)C2 [Example 55, 3-chloro-5-fluoro-N-[3-[(1S)-2-(4-fluoroanilino)-1-methyl-2-oxo-ethyl]-1-bicyclo[1.1.1]pentanyl]benzamide]",152
22,"CC(C)(NC(=O)c1ccc(F)cc1)C12CC(NC(=O)c3ccc(Cl)c(Cl)c3)(C1)C2 [Example 103, 3,4-Dichloro-N-(3-(2-(4-fluorobenzamido)propan-2-yl)bicyclo[1.1.1]pentan-1-yl)benzamide]",46.9
23,"C[C@H](C(=O)Nc1ccc(F)cc1)C12CC(NC(=O)c3ccc(Cl)c(Cl)n3)(C1)C2 [Example 149, (S)-5,6-dichloro-N-(3-(1-((4-fluorophenyl)amino)-1-oxopropan-2-yl)bicyclo[1.1.1]pentan-1-yl)picolinamide]",26.9
24,"C[C@@H](C(=O)Nc1ccc(F)cc1)C12CC(NC(=O)c3cc(F)cc(Cl)c3)(C1)C2 [Example 40, 3-chloro-5-fluoro-N-[3-[(1R)-2-(4-fluoroanilino)-1-methyl-2-oxo-ethyl]-1-bicyclo[1.1.1]pentanyl]benzamide]",2.35
25,"C[C@H](C(=O)Nc1ccc(F)cc1)C12CC(NC(=O)Nc3ccc(F)c(F)c3)(C1)C2 [Example 82, (S)-2-(3-(3-(3,4-difluorophenyl)ureido)bicyclo[1.1.1]pentan-1-yl)-N-(4-fluorophenyl)propanamide]",30.3
